These results are taken from PubChem BioAssay AID1259407 (Chemical Carcinogenesis Research Information System (CCRIS), 2018).

Molecules are shown by their SMILES. Active and inactive are the calls of the source. The rule behind the calls is not given here.

This series has as its system CCRIS mutagenicity, Ames/micronucleus/aberration tests. Kind of series: CCRIS mutagenicity studies.
The mark [1] stands for this setting: Test System: AMES SALMONELLA TYPHIMURIUM, Strain/Indicator: TA98, Metabolic Activation: NONE, Method: PREINCUBATION
Setting [2] is: Test System: AMES SALMONELLA TYPHIMURIUM, Strain/Indicator: TA100, Metabolic Activation: NONE, Method: PREINCUBATION
[3] abbreviates: Test System: AMES SALMONELLA TYPHIMURIUM, Strain/Indicator: TA98, Metabolic Activation: NONE, Method: STANDARD PLATE.
Where [4] appears, read: Test System: AMES SALMONELLA TYPHIMURIUM, Strain/Indicator: TA100, Metabolic Activation: NONE, Method: STANDARD PLATE.
Where [5] appears, read: Test System: AMES SALMONELLA TYPHIMURIUM, Strain/Indicator: TA100, Metabolic Activation: RAT, LIVER, S-9, AROCLOR 1254, Method: STANDARD PLATE.

For the molecule `Nc1ccc(Cl)cc1Cl`, the mutagenic call by setting is: (Test System: AMES SALMONELLA TYPHIMURIUM, Strain/Indicator: TA97, Metabolic Activation: HAMSTER, LIVER, S-9, AROCLOR 1254 (10 OR 30%), Method: PREINCUBATION) “inactive; negative”; (Test System: AMES SALMONELLA TYPHIMURIUM, Strain/Indicator: TA97, Metabolic Activation: NONE, Method: PREINCUBATION) “inactive; negative”; (Test System: AMES SALMONELLA TYPHIMURIUM, Strain/Indicator: TA97, Metabolic Activation: RAT, LIVER, S-9, AROCLOR 1254 (10 OR 30%), Method: PREINCUBATION) “inactive; negative”; (Test System: AMES SALMONELLA TYPHIMURIUM, Strain/Indicator: TA98, Metabolic Activation: HAMSTER, LIVER, S-9, AROCLOR 1254 (10%), Method: PREINCUBATION) “inactive; negative”; (Test System: AMES SALMONELLA TYPHIMURIUM, Strain/Indicator: TA98, Metabolic Activation: HAMSTER, LIVER, S-9, AROCLOR 1254 (30%), Method: PREINCUBATION) “inactive; negative”; under setting [1], “inactive; negative”. The mutagenic call was “inactive; negative” (Test System: AMES SALMONELLA TYPHIMURIUM, Strain/Indicator: TA98, Metabolic Activation: RAT, LIVER, S-9, AROCLOR 1254 (5 OR 30%), Method: PREINCUBATION); “inactive; negative” (Test System: AMES SALMONELLA TYPHIMURIUM, Strain/Indicator: TA98, Metabolic Activation: RAT, LIVER, S-9, AROCLOR 1254 (10%), Method: PREINCUBATION); “inactive; negative” (Test System: AMES SALMONELLA TYPHIMURIUM, Strain/Indicator: TA100, Metabolic Activation: HAMSTER, LIVER, S-9, AROCLOR 1254 (5%), Method: PREINCUBATION); “inactive; negative” (Test System: AMES SALMONELLA TYPHIMURIUM, Strain/Indicator: TA100, Metabolic Activation: HAMSTER, LIVER, S-9, AROCLOR 1254 (10%), Method: PREINCUBATION); “inactive; negative” (Test System: AMES SALMONELLA TYPHIMURIUM, Strain/Indicator: TA100, Metabolic Activation: HAMSTER, LIVER, S-9, AROCLOR 1254 (30%), Method: PREINCUBATION); “inactive; negative” under setting [2]. For the same molecule, the mutagenic call reads like this: (Test System: AMES SALMONELLA TYPHIMURIUM, Strain/Indicator: TA100, Metabolic Activation: RAT, LIVER, S-9, AROCLOR 1254 (10%), Method: PREINCUBATION) “inactive; negative”; (Test System: AMES SALMONELLA TYPHIMURIUM, Strain/Indicator: TA100, Metabolic Activation: RAT, LIVER, S-9, AROCLOR 1254 (30%), Method: PREINCUBATION) “inactive; negative”; (Test System: AMES SALMONELLA TYPHIMURIUM, Strain/Indicator: TA1535, Metabolic Activation: HAMSTER, LIVER, S-9, AROCLOR 1254 (10 OR 30%), Method: PREINCUBATION) “inactive; negative”; (Test System: AMES SALMONELLA TYPHIMURIUM, Strain/Indicator: TA1535, Metabolic Activation: NONE, Method: PREINCUBATION) “inactive; negative”; (Test System: AMES SALMONELLA TYPHIMURIUM, Strain/Indicator: TA1535, Metabolic Activation: RAT, LIVER, S-9, AROCLOR 1254 (10 OR 30%), Method: PREINCUBATION) “inactive; negative”; (Test System: AMES SALMONELLA TYPHIMURIUM, Strain/Indicator: TA1537, Metabolic Activation: HAMSTER, LIVER, S-9, AROCLOR 1254 (30%), Method: PREINCUBATION) “inactive; negative”. For the same molecule, the mutagenic call is, setting by setting: (Test System: AMES SALMONELLA TYPHIMURIUM, Strain/Indicator: TA1537, Metabolic Activation: NONE, Method: PREINCUBATION) “inactive; negative”; (Test System: AMES SALMONELLA TYPHIMURIUM, Strain/Indicator: TA1537, Metabolic Activation: RAT, LIVER, S-9, AROCLOR 1254 (30%), Method: PREINCUBATION) “inactive; negative”.
Regarding `O=[N+]([O-])c1ccc(-[n+]2nc(-c3ccccc3)nn2-c2ccc(I)cc2)cc1`, the mutagenic call by setting is: (Test System: AMES SALMONELLA TYPHIMURIUM, Strain/Indicator: TA97, Metabolic Activation: NONE, Method: SPOT TEST) “inactive; negative”; under setting [1], “inactive; negative”; (Test System: AMES SALMONELLA TYPHIMURIUM, Strain/Indicator: TA98, Metabolic Activation: NONE, Method: SPOT TEST) “inactive; negative”; under setting [2], “inactive; negative”; (Test System: AMES SALMONELLA TYPHIMURIUM, Strain/Indicator: TA100, Metabolic Activation: NONE, Method: SPOT TEST) “inactive; negative”; (Test System: AMES SALMONELLA TYPHIMURIUM, Strain/Indicator: TA102, Metabolic Activation: NONE, Method: SPOT TEST) “inactive; negative”.
On to `COc1cc(/C=C/C(=O)O[C@H]2CC[C@]34C[C@]35CC[C@]3(C)[C@@H]([C@H](C)CCC=C(C)C)CC[C@@]3(C)[C@@H]5CC[C@H]4C2(C)C)ccc1O`, for which the mutagenic call under setting [3] is “inactive; negative”; the mutagenic call (Test System: AMES SALMONELLA TYPHIMURIUM, Strain/Indicator: TA98, Metabolic Activation: S9, Method: STANDARD PLATE) is “inactive; negative”; the mutagenic call under setting [4] was “inactive; negative”; the mutagenic call (Test System: AMES SALMONELLA TYPHIMURIUM, Strain/Indicator: TA100, Metabolic Activation: S9, Method: STANDARD PLATE) was “inactive; negative”; the mutagenic call (Test System: AMES SALMONELLA TYPHIMURIUM, Strain/Indicator: TA1535, Metabolic Activation: NONE, Method: STANDARD PLATE) is “inactive; negative”; the mutagenic call (Test System: AMES SALMONELLA TYPHIMURIUM, Strain/Indicator: TA1535, Metabolic Activation: S9, Method: STANDARD PLATE) was “inactive; negative”. Also, the mutagenic call runs as follows: (Test System: AMES SALMONELLA TYPHIMURIUM, Strain/Indicator: TA1537, Metabolic Activation: NONE, Method: STANDARD PLATE) “inactive; negative”; (Test System: AMES SALMONELLA TYPHIMURIUM, Strain/Indicator: TA1537, Metabolic Activation: S9, Method: STANDARD PLATE) “inactive; negative”; (Test System: E.COLI, Strain/Indicator: WP2 UVRA, Metabolic Activation: NONE, Method: STANDARD PLATE) “inactive; negative”; (Test System: E.COLI, Strain/Indicator: WP2 UVRA, Metabolic Activation: S9, Method: STANDARD PLATE) “inactive; negative”.
Regarding `O=[N+]([O-])c1cc(CCl)cc([N+](=O)[O-])c1`, the mutagenic call is “active; positive” under setting [1]; “active; positive” (Test System: AMES SALMONELLA TYPHIMURIUM, Strain/Indicator: TA98, Metabolic Activation: RAT, LIVER, S-9, KANECHLOR 500, Method: PREINCUBATION); “active; positive” under setting [2]; “active; positive” (Test System: AMES SALMONELLA TYPHIMURIUM, Strain/Indicator: TA100, Metabolic Activation: RAT, LIVER, S-9, KANECHLOR 500, Method: PREINCUBATION).
As to `Cc1nc2ccc(NCCN(C)C)c3c(=O)c4cc(O)ccc4n1c23`, the mutagenic call (Test System: CHINESE HAMSTER V-79, Strain/Indicator: V-79 (HGPRT)/6-THIOGUANINE, Metabolic Activation: NONE) is “active; positive”.
Consider `O=C1c2ccccc2-c2ccc3ccc4ccccc4c3c21`, for which the mutagenic call under setting [5] was “inactive; negative”.
Turning to `[Cl][La]([Cl])[Cl]`, the mutagenic call (Test System: E. COLI, Strain/Indicator: WP2 UVRA, Metabolic Activation: NONE, Method: SPOT TEST) was “inactive; negative”.
For the molecule `O=C1C=CC(=O)N1`, the mutagenic call by setting is: (Test System: AMES SALMONELLA TYPHIMURIUM, Strain/Indicator: TA98, Metabolic Activation: HAMSTER, LIVER, S-9, AROCLOR 1254, Method: STANDARD PLATE) “active; positive”; under setting [3], “active; positive”; (Test System: AMES SALMONELLA TYPHIMURIUM, Strain/Indicator: TA98, Metabolic Activation: RAT, LIVER, S-9, AROCLOR 1254, Method: STANDARD PLATE) “active; positive”; (Test System: AMES SALMONELLA TYPHIMURIUM, Strain/Indicator: TA100, Metabolic Activation: HAMSTER, LIVER, S-9, AROCLOR 1254, Method: STANDARD PLATE) “inactive; negative”; under setting [4], “inactive; negative”; under setting [5], “active; positive”. The mutagenic call reads like this: (Test System: MOUSE LYMPHOMA, Strain/Indicator: L5178Y (TK+/TK-), Metabolic Activation: NONE, Method: SUSPENSION/PLATE) “active; positive. reevaluation of results: inconclusive”; (Test System: MOUSE LYMPHOMA, Strain/Indicator: L5178Y (TK+/TK-), Metabolic Activation: RAT, LIVER, S-9, AROCLOR 1254, Method: SUSPENSION/PLATE) “active; positive. reevaluation of results: positive”.
Take `CCOC(=O)N(CCCC(=O)c1cccnc1)N=O`: the mutagenic call under setting [2] is “active; positive”.
